{
  "source": "patent US9682031B2",
  "about": "“Microcapsules comprising benzoyl peroxide and topical compositions comprising them” (Tagra Biotechnologies Ltd., priority 2009, dated 2017)",
  "assay_type_in_all_cases": "physicochemical",
  "key": {"[1]": {"assay": "Chemical stability of BPO in aqueous gel formulation, 40° C., 90 days (HPLC)", "conditions": "5% BPO, 90 days at 40° C. (FIG. 21)", "method": "Geogard (0.7 g, Lonza) was dissolved in water by heating to 40-50° C. and the solution was allowed to cool to room temperature. Clindamycin phosphate was optionally dissolved in the solution (in formulations comprising antibiotics). Xanthan gum (1 g, Interaxion) was slowly added under medium mixing until the xanthan gum gel was formed. BPO microcapsules were then added to the gel by simple mixing. The composition of the gel formulation is detailed in Table 8 below.\nBPO microcapsules were incorporated into the gel formulation (gel base comprising no clindamycin) at final BPO concentration of 5% and incubated at 40° C. over 90 days. Stability studies were performed for compositions comprising only encapsulated BPO or encapsulated BPO in combination with 0.75-1% of Clindamycin Phosphate. BPO concentration was determined immediately after incorporation into gel formulation and after 30, 60 and 90 days. Total concentration of BPO was determined by mixing 1 gr of the gel formulation with dichloromethane/methanollacetonitrile solution. BPO concentration in water phase was determined after separation of microcapsules from gel by centrifugation. The water phase was mixed with dichloromethane/methanol/acetonitrile solution in order to extract BPO and its content was determined using HPLC."}, "[2]": {"assay": "Congo red oxidation sensitivity / qualitative diffusion test", "conditions": "microcapsules = sample 2 (PMMA-BPO); 4% (w/w) BPO free or encapsulated, BPO/congo red 30:1, 50-55° C.", "method": "Azo-dye congo red was used as a model for oxidation-sensitive component, the ratio BPO/congo red=30:1(w/w).\nThree comparative systems were utilized: • 1—BPO microcapsules (sample 2) • 2—free BPO • 3—without BPO (blank)\nFor the preparation of (1) and (2), 9 g (ml) aqueous dispersion containing 4% (w/w) BPO (free or encapsulated) were suspended with 0.1% Tween™ 20 (polysorbate 20) and 9 g liquid vehicle and stirred in a 25 ml beaker with a magnetic stirrer. Following a mixing period of 30 minutes, the temperature of the system was raised to 50-55° C. and 1 ml of a 1% aqueous solution of congo red were added. The blank system (3) was prepared by stirring 9 ml 0.1% Tween™ 20 and 9 g liquid vehicle, and adding 1 ml of a 1% aqueous solution of congo red. After stirring the suspension for 1 minute, pictures of the three systems were taken."}, "[3]": {"assay": "Chemical stability of BPO in gel containing 1% free retinol, 40° C., 30 days (HPLC)", "conditions": "encapsulated = sample 21; gel with 1% free retinol, 5% BPO, 30 days storage at 40° C.", "method": "HPLC was used for BPO analysis following storage at 40° C. (encapsulated BPO vs. free BPO in a gel formulation containing 1% free retinol)."}},
  "data": [
    {"smiles": "O=C(OOC(=O)c1ccccc1)c1ccccc1", "note": "[free BPO, benzoyl peroxide]", "values": [
      {"measurement": "decrease in the concentration of BPO", "setting": "[1]", "result": "negligible decrease"},
      {"measurement": "color of congo red solution", "setting": "[2]", "result": "changed its color from red to yellow"},
      {"measurement": "relative content of BPO from the initial concentration", "setting": "[3]", "result": 36, "unit": "%"}
    ]}
  ]
}
